The text below walks through data of PubChem BioAssay (NCI).

Among the test systems are UACC-257 melanoma; OVCAR-3 ovarian; SNB-19 CNS; U251 CNS; A498 renal; UO-31 renal; PC-3 prostate; NCI-H23 lung; 786-0 renal; SF-268 CNS; T-47D breast.
What all share (assay): growth of human tumour cells (NCI), 48 h

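All cell lines were grown in 96-well plates and treated with compound for 48 hours. Abbreviation: GI50, concentration required for 50% inhibition of growth. Definition used: TGI = concentration required for complete inhibition of growth.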 A value given as a limit tells only on which side of the number the result lay.

With `CCCNC(=O)CCC(C)C1CCC2C3C(C[C@H](OC(C)=O)[C@]12C)[C@@]1(C)CCC2(C[C@H]1C[C@H]3OC(C)=O)OOC1(CC[C@]3(C)C4C[C@H](OC(C)=O)[C@]5(C)C(C(C)CCC(=O)NCCC)CCC5C4[C@H](OC(C)=O)C[C@@H]3C1)OO2` (some centres not stated), the TGI in the assay with UACC-257 melanoma was greater than 100 µM; in the assay on OVCAR-3 ovarian, greater than 100 µM; in the assay with SNB-19 CNS, greater than 100 µM; in the assay on U251 CNS, greater than 100 µM; with A498 renal it was greater than 100 µM; in the assay with UO-31 renal, 3.31 µM. The TGI in the assay with PC-3 prostate, with NCI-H23 lung, in the assay with 786-0 renal, with SF-268 CNS and in the assay on T-47D breast was greater than 100 µM each time. Further, the GI50 in the assay on T-47D breast was greater than 100 µM.

In the case of `CNC(=O)OCc1c(CO)nc(SC)n1C`, the TGI with UACC-257 melanoma, in the assay with OVCAR-3 ovarian, in the assay with SNB-19 CNS, in the assay with U251 CNS, in the assay on A498 renal and with UO-31 renal was greater than 100 µM each time. The TGI in the assay on NCI-H23 lung and with SF-268 CNS was greater than 100 µM in each case.

Turning to `O=C(O)C1C2CCC(O2)C1C(=O)Nc1cccc2cccnc12` (configuration not stated), the TGI in the assay with UACC-257 melanoma, with OVCAR-3 ovarian, in the assay with SNB-19 CNS, with U251 CNS, with A498 renal and in the assay on UO-31 renal was greater than 100 µM throughout. Further, the TGI in the assay on PC-3 prostate, in the assay on NCI-H23 lung, in the assay on 786-0 renal and with T-47D breast was greater than 100 µM each time.

As to `O=c1[nH]nc(NNc2ccccc2)c2nnn(C3CCCCC3)c12`, the TGI in the assay with UACC-257 melanoma, in the assay with OVCAR-3 ovarian, in the assay with SNB-19 CNS, in the assay with U251 CNS, with UO-31 renal and with PC-3 prostate was greater than 100 µM throughout. For the same molecule, the TGI in the assay with NCI-H23 lung is greater than 100 µM.

`CCOC(=O)C1=NN(c2ccc(C)cc2)C2=CC(C)=NN(C)C(=S)N21`: the TGI with UACC-257 melanoma, in the assay with OVCAR-3 ovarian, in the assay with SNB-19 CNS, in the assay with U251 CNS, in the assay on UO-31 renal and in the assay with PC-3 prostate was greater than 100 µM each time. The TGI in the assay with NCI-H23 lung is greater than 100 µM; in the assay on SF-268 CNS, greater than 100 µM; with T-47D breast, 61.3 µM.

Consider `O=c1cccccc1[O-].O=c1cccccc1[O-].[O]=[U+2]=[O]`, for which the TGI with UACC-257 melanoma is 68.5 µM; with OVCAR-3 ovarian it was 36.8 µM; in the assay on SNB-19 CNS, 82.2 µM; in the assay on U251 CNS it was 72 µM; in the assay on A498 renal it was 45.8 µM; with NCI-H23 lung it was greater than 100 µM. For the same molecule, the GI50 in the assay on U251 CNS is 25.9 µM; with A498 renal, 25.1 µM.

In the case of `CCOC(=O)C(NC(=O)c1ccco1)(Nc1nc2ccc(OCC)cc2s1)C(F)(F)F` (configuration not stated), the TGI is 76.1 µM with UACC-257 melanoma; greater than 100 µM in the assay on OVCAR-3 ovarian; greater than 100 µM in the assay on SNB-19 CNS; greater than 100 µM in the assay with U251 CNS; greater than 100 µM in the assay on UO-31 renal; 93 µM with PC-3 prostate. Besides, the TGI in the assay on NCI-H23 lung was greater than 100 µM; with 786-0 renal it was 68.4 µM; in the assay on SF-268 CNS it was greater than 100 µM; in the assay with T-47D breast, greater than 100 µM.

`O=C(OCN1C(=O)C2C3C=CC(C2C1=O)C1C2C(=O)N(COC(=O)C4CCCN4)C(=O)C2C31)C1CCCN1` (configuration not stated): the TGI in the assay on UACC-257 melanoma was greater than 100 µM; in the assay on OVCAR-3 ovarian, greater than 100 µM; in the assay on SNB-19 CNS, greater than 100 µM; in the assay with U251 CNS it was greater than 67.5 µM; with A498 renal, greater than 100 µM; with UO-31 renal it was greater than 100 µM. For the same molecule, the TGI in the assay with NCI-H23 lung is greater than 100 µM; with 786-0 renal it was greater than 60.6 µM; with SF-268 CNS it was greater than 78.5 µM.

In the case of `CCn1c(-c2ccc(N=NNc3ccc(-c4n[nH]c(=S)n4CC)cc3)cc2)n[nH]c1=S`, the TGI was greater than 100 µM in the assay with UACC-257 melanoma; 5.61 µM in the assay with OVCAR-3 ovarian; 9.53 µM in the assay with SNB-19 CNS; greater than 100 µM with A498 renal; 5.62 µM with UO-31 renal; 8.34 µM in the assay on PC-3 prostate. Besides, the TGI stood at 6.26 µM in the assay with NCI-H23 lung, 37.2 µM in the assay on 786-0 renal, 17.2 µM in the assay on SF-268 CNS and 4.35 µM in the assay with T-47D breast.

Regarding `COc1ccc(C(=O)/C=C/c2cccc([N+](=O)[O-])c2)c(OC)c1`, the GI50 with UACC-257 melanoma is greater than 50 µM; in the assay on OVCAR-3 ovarian, 1.72 µM; in the assay on SNB-19 CNS, 1.46 µM; in the assay on U251 CNS, 0.881 µM; in the assay on A498 renal, 11.1 µM; in the assay with NCI-H23 lung it was 2.61 µM. The GI50 was 1.62 µM in the assay on SF-268 CNS and 1.93 µM with T-47D breast. Besides, the TGI was greater than 50 µM in the assay on UACC-257 melanoma; greater than 50 µM in the assay on OVCAR-3 ovarian; 4.37 µM with SNB-19 CNS; 1.72 µM in the assay on U251 CNS; greater than 50 µM with A498 renal; greater than 50 µM in the assay on NCI-H23 lung. Besides, the TGI in the assay with SF-268 CNS and in the assay on T-47D breast was greater than 50 µM throughout.

With `[N-]=[N+]=CC(=O)c1ccccc1C#CCCc1ccccc1`, the TGI in the assay with UACC-257 melanoma was 94.7 µM; in the assay on OVCAR-3 ovarian it was 61.5 µM; in the assay with SNB-19 CNS, greater than 100 µM; in the assay with U251 CNS it was 88.5 µM; with A498 renal it was greater than 100 µM; in the assay with UO-31 renal, greater than 100 µM. Moreover, in the assay with NCI-H23 lung, the TGI amounted to 89.2 µM.

`COc1cc2c(cc1O)CC[C@@H]1[C@@H]2CC[C@]2(C)[C@@H](OCCN(C)C)CC[C@@H]12`: the GI50 in the assay on UACC-257 melanoma is 0.138 µM; in the assay with OVCAR-3 ovarian, 0.183 µM; in the assay on SNB-19 CNS it was 0.777 µM; in the assay with U251 CNS, 0.219 µM; with A498 renal, 0.569 µM; in the assay on UO-31 renal, 0.624 µM. In addition, the GI50 is 0.202 µM in the assay with NCI-H23 lung and 0.353 µM with SF-268 CNS. The TGI in the assay with UACC-257 melanoma is 0.355 µM; in the assay with OVCAR-3 ovarian, 0.966 µM; in the assay with SNB-19 CNS, 5.14 µM; in the assay on U251 CNS, 0.872 µM; in the assay on A498 renal, 1.37 µM; in the assay on UO-31 renal, 1.48 µM. Besides, the results for the TGI with NCI-H23 lung and with SF-268 CNS were 1.12 µM and 5.29 µM, respectively.

In the case of `CC12CC3OC(=O)C1COC14OC5(C2C1=O)C(O)(CCC1C4CC(O)C2(O)CC=CC(=O)C12C)C(=O)OC35C` (configuration not stated), the TGI in the assay on UACC-257 melanoma, with OVCAR-3 ovarian, in the assay with SNB-19 CNS, in the assay on U251 CNS, in the assay with UO-31 renal and with PC-3 prostate was greater than 100 µM each time. The TGI in the assay with NCI-H23 lung, in the assay on 786-0 renal, in the assay with SF-268 CNS and in the assay on T-47D breast was greater than 100 µM each time.
